The record followed here is patent US20130029991A1, “New Phenylsulfamoyl Benzamide Derivatives as Bradykinin Antagonists” (priority 2006, published 2013).

Where a name gives a salt, the structure may show the parent alone. Read-outs that look alike come from different tables or passages of the source.

Assay [1] deals with T1, human recombinant bradykinin B1 receptor (Homo sapiens, UniProt P46663).
T1 construct: host or cells: CHO cells
T1 sequence (P46663 1-353): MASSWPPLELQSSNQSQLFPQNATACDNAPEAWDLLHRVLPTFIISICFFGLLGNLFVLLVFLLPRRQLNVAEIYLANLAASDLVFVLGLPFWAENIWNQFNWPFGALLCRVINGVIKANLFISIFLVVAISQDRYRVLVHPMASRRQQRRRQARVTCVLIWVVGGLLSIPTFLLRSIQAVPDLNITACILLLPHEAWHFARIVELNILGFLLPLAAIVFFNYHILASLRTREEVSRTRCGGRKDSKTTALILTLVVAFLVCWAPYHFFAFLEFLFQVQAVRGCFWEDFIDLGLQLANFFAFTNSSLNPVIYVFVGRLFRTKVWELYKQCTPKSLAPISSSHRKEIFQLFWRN
The assay is described as follows: Human recombinant bradykinin B1 receptor binding. As to the method: 1. Human Recombinant Bradykinin B1 Receptor Binding
Binding assays were carried out on human recombinant bradykinin) receptors (expressed in CHO cells) according to the Euroscreen Technical Data Sheet (Cat.No.:ES-091). 20 μg protein/tube was incubated with [3,4-prolyl-3,4-^3H(N)]-[Des-Arg^10] Kallidin as radioligand. Non specific binding was determined in the presence of 10 μM Lys-des-Arg^9-Bradykinin. The final incubation volume was 250 μl. Samples were incubated for 15 min. at 25° C. then were rapidly vacuum filtered through GF/B filters presoaked for at least 1 h in 0.5% PEI. Radioactivity was determined by liquid scintillation spectroscopy.

Assay [2] deals with T2, recombinant human B1 receptors (Homo sapiens, UniProt P46663).
T2 construct: host or cells: CHO (CHO-B1)
T2 sequence (P46663 1-353): T1 sequence (P46663 1-353)
The assay is described as follows: Functional assay: antagonist potency by cytosolic calcium measurement (fluo-4, plate reader fluorimeter) in CHO-B1 cells. Type of assay: cell-based. As to the method:
Assessment of Antagonist Potency at B1 and B2 Receptors In Vitro by Measurement of Cytosolic Calcium Ion Concentration with a Plate Reader Fluorimeter in Cells Expressing Recombinant Human B1 or B2 Receptors
Chinese hamster ovary (CHO) cells stably expressing recombinant human B1 (CHO-B1, Euroscreen) or B2 (CHO-B2, Perkin-Elmer) receptors were cultured in Dulbecco's Modified Eagle's Medium (DMEM) containing 10% Fetal Calf Serum (FCS), 100 U/ml penicillin, 0.1 mg/ml streptomycin, 0.25 μg/ml amphotericin B, 1% Minimum Essential Medium Eagle (MEM), non essential amino acid solution, […], 1% pyruvate (for the B2 cell line). Cells were kept at 37° C. in a humidified incubator in an atmosphere of 5% CO2/95% air and were passaged 1:4 three times a week. Cells were plated at 1.5-2.5×10^4 cell/well on standard 96-well microplates, measurements of cytosolic calcium ion concentration ([Ca^2+]i) were carried out 1-2 days after cell plating.
Measurements of [Ca^2+]i were carried out on CHO-B1 and CHO-B2 cells stably expressing human B1 and B2 receptors, respectively. Cells were grown in standard 96-well microplates and before the measurement were loaded with a fluorescent Ca^2+-sensitive dye, fluo-4/AM (2 μM): after removing the culture medium the dye was added to the cells (dissolved in assay buffer: 145 mM NaCl, 5 mM KCl, 2 mM MgCl2, 2 mM CaCl2, 10 mM HEPES, 20 mM D-glucose, 2 mM probenecid, 100 μl/well) and cells were incubated at 37° C. in a humidified incubator in an atmosphere of 5% CO2/95% air for 40-120 min. To stop dye loading cells were washed twice with assay buffer. After washing, various concentrations of the test compounds (diluted in extracellular medium from a DMSO stock solution, final DMSO concentration was <0.1%) or buffer were added to each well depending on the experimental setup. After incubation at 37° C. for 20-25 min. baseline and agonist-evoked changes of [Ca^2+]i were measured column by column with a plate reader fluorimeter (Fluoroskan Ascent, Labsystems). Excitation and detection of emission was carried out from the bottom of the plate. Filters used for Fluo-4: excitation filter—485 nm, emission filter—538 nm. The whole measurement process was performed at 37° C. and was controlled by custom software Inhibitory potency of the test compounds was assessed by measuring the reduction in the agonist-evoked [Ca^2+]i-elevation in the presence of different concentrations of the compounds. The agonists were LysDABK for CHO-B1, and bradykinin for CHO-B2 cells. Agonists were applied at an EC80 concentration, the EC80-values were derived from daily determined dose-response curves. Fluorescence data were expressed as ΔF/F (fluorescence change normalized to baseline). All treatments on a single plate were measured in multiple wells. Data from all wells with the same treatment were averaged and the average values were used for analysis. Inhibitory potency of a compound at a single concentration point was expressed as percent inhibition of the control agonist response. Sigmoidal concentration-inhibition curves were fitted to the data (derived from at least three independent experiments) and IC50-values were determined as the concentration that produces half of the maximal inhibition caused by the compound.

Setting [3] is: CHO cell membranes, [3H]-[Des-Arg10] Kallidin radioligand, read-out: B1 binding.
[4] abbreviates: CHO-B1 cells, inhibition of LysDABK (EC80)-evoked [Ca2+]i elevation, read-out: B1 func.

On to `O=C(CNC(=O)c1ccc(S(=O)(=O)Nc2ccccc2C(=O)c2ccccc2)cc1)NCC1CCNCC1` [Example 18, 4-(2-Benzoyl-phenylsulfamoyl)-N-{[(piperidin-4-ylmethyl)-carbamoyl]-methyl}-benzamide hydrochloride], for which the Ki in assay [1] (setting [3]) is less than 20 nM. The IC50 in assay [2] (setting [4]) is less than 20 nM.

On to `O=C(CNC(=O)c1ccc(S(=O)(=O)Nc2ccccc2Oc2ccc(Cl)cc2Cl)cc1)NCCN1CCCCC1` [Example 23, 4-[2-(2,4-Dichloro-phenoxy)-phenylsulfamoyl]-N-[(2-piperidin-1-yl-ethylcarbamoyl)-methyl]-benzamide], for which the Ki in assay [1] (setting [3]) is less than 20 nM. The IC50 in assay [2] (setting [4]) is less than 20 nM.

Consider `O=C(NC(Cc1ccccc1)C(=O)NCC1CCNCC1)c1ccc(S(=O)(=O)Nc2ccccc2Oc2ccc(Cl)cc2Cl)cc1` (stereo not drawn) [Example 6, 4-[2-(2,4-Dichloro-phenoxy)-phenylsulfamoyl]-N-{2-phenyl-1-[(piperidin-4-ylmethyl)-carbamoyl]-ethyl}-benzamide hydrochloride], for which the Ki in assay [1] (setting [3]) was less than 20 nM. Further, in assay [2] (setting [4]), the IC50 was less than 20 nM.

Turning to `O=C(CNC(=O)c1ccc(S(=O)(=O)Nc2ccccc2Oc2ccccc2)cc1)Nc1ccc(N2CCC(N3CCCCC3)CC2)cc1` [Example 49, N-[(4-[1,4′]Bipiperidinyl-1′-yl-phenylcarbamoyl)-methyl]-4-(2-phenoxy-phenylsulfamoyl)-benzamide], in assay [1] (setting [3]), the Ki is less than 20 nM. In assay [2] (setting [4]), the IC50 was less than 20 nM.

As to `O=C(CNC(=O)c1ccc(S(=O)(=O)Nc2cc(F)ccc2Oc2ccccc2)cc1)NCC1CCNCC1` [Example 7, 4-(5-Fluoro-2-phenoxy-phenylsulfamoyl)-N-{[(piperidin-4-ylmethyl)-carbamoyl]-methyl}-benzamide hydrochloride], in assay [1] (setting [3]), the Ki was less than 20 nM. For the same compound, the IC50 in assay [2] (setting [4]) was less than 20 nM.

Turning to `O=C(CNC(=O)c1ccc(S(=O)(=O)Nc2ccccc2Oc2ccccc2)cc1)NCC(=O)N1CCNCC1` [Example 16, N-[(2-Oxo-2-piperazin-1-yl-ethylcarbamoyl)-methyl]-4-(2-phenoxy-phenylsulfamoyl)-benzamide hydrochloride], in assay [1] (setting [3]), the Ki is less than 20 nM. The IC50 in assay [2] (setting [4]) is less than 20 nM.

On to `CCCN1C(=O)[C@H](NC(=O)Nc2ccc(N3CCC(N4CCCCC4)CC3)cc2)N=C(c2ccc(C)cc2)c2ccccc21` [N-[4-(,4′-bipiperidin)-1′-ylphenyl]-N′-[(3R)-2,3-dihydro-5-(4-methyl-phenyl)-2-oxo-1-propyl-1H-1,4-benzodiazepin-3-yl]-urea, reference compound], for which, in assay [1] (reference compounds, binding test, read-out: Ki), the Ki was 13.4 nM. The IC50 in assay [2] (reference compounds, functional test, read-out: IC50) stood at 64.5 nM.

Regarding `C[C@H](NC(=O)c1ccc(S(=O)(=O)Nc2ccccc2Oc2ccc(Cl)cc2Cl)cc1)C(=O)NCC1CCNCC1` [Example 8, 4-[2-(2,4-Dichloro-phenoxy)-phenylsulfamoyl]-N—{(S)-1-[(piperidin-4-ylmethyl)-carbamoyl]-ethyl}-benzamide hydrochloride], the Ki in assay [1] (setting [3]) was less than 20 nM. The IC50 in assay [2] (setting [4]) is less than 20 nM.

In the case of `O=C(CNC(=O)c1ccc(S(=O)(=O)Nc2cc(F)ccc2Oc2ccc(F)cc2)cc1)NCC1CCNCC1` [Example 15, 4-[5-Fluoro-2-(4-fluoro-phenoxy)-phenylsulfamoyl]-N-{[(piperidin-4-ylmethyl)-carbamoyl]-methyl}-benzamide hydrochloride], in assay [1] (setting [3]), the Ki is less than 20 nM. In addition, the IC50 in assay [2] (setting [4]) is less than 20 nM.

Consider `O=C(CNC(=O)c1ccc(S(=O)(=O)Nc2ccccc2Oc2ccc(Cl)cc2Cl)cc1)NCCCCN1CCCCC1` [Example 63, 4-[2-(2,4-Dichloro-phenoxy)-phenylsulfamoyl]-N-[(4-piperidin-1-yl-butylcarbamoyl)-methyl]-benzamide], for which the Ki in assay [1] (setting [3]) was less than 20 nM. Besides, in assay [2] (setting [4]), the IC50 is less than 20 nM.

Consider `O=C(CNC(=O)c1ccc(S(=O)(=O)Nc2ccccc2Oc2ccccc2)cc1)NCCCN1CCC(N2CCCCC2)CC1` [Example 48, N-[(3-[1,4′]Bipiperidinyl-r-yl-propylcarbamoyl)-methyl]-4-(2-phenoxy-phenylsulfamoyl)-benzamide], for which, in assay [1] (setting [3]), the Ki is less than 20 nM. The IC50 in assay [2] (setting [4]) is less than 20 nM.

For the compound `CN(C)CCCNC(=O)CNC(=O)c1ccc(S(=O)(=O)Nc2ccccc2Oc2ccc(Cl)cc2Cl)cc1` [Example 25, 4-[2-(2,4-Dichloro-phenoxy)-phenylsulfamoyl]-N-[(3-dimethylamino-propylcarbamoyl)-methyl]-benzamide], the Ki in assay [1] (setting [3]) was less than 20 nM. In addition, the IC50 in assay [2] (setting [4]) was less than 20 nM.

For `O=C(CNC(=O)c1ccc(S(=O)(=O)Nc2ccccc2Oc2ccc(F)cc2)cc1)NCC1CCNCC1` [Example 12, 4-[2-(4-Fluoro-phenoxy)-phenylsulfamoyl]-N-{[(piperidin-4-ylmethyl)-carbamoyl]-methyl}-benzamide hydrochloride], the Ki in assay [1] (setting [3]) is less than 20 nM. The IC50 in assay [2] (setting [4]) was less than 20 nM.

Regarding `O=C(CNC(=O)c1ccc(S(=O)(=O)Nc2cc(F)ccc2Oc2ccc(Br)cc2)cc1)NCC1CCNCC1` [Example 4, 4-[2-(4-Bromo-phenoxy)-5-fluoro-phenylsulfamoyl]-N-{[(piperidin-4-ylmethyl)-carbamoyl]-methyl}-benzamide trifluoroacetate], in assay [1] (setting [3]), the Ki is less than 20 nM. The IC50 in assay [2] (setting [4]) is less than 20 nM.

As to `O=C(CNC(=O)c1ccc(S(=O)(=O)Nc2ccccc2Oc2ccccc2)cc1)NC1CCNCC1` [Example 66, 4-(2-Phenoxy-phenylsulfamoyl)-N-(piperidin-4-ylcarbamoylmethyl)-benzamide hydrochloride], in assay [1] (setting [3]), the Ki was less than 20 nM. Further, in assay [2] (setting [4]), the IC50 was less than 20 nM.

Regarding `N=C(N)NCc1ccc(CNC(=O)CNC(=O)c2ccc(S(=O)(=O)Nc3ccccc3Oc3ccc(Cl)cc3Cl)cc2)cc1` [Example 39, 4-[2-(2,4-Dichloro-phenoxy)-phenylsulfamoyl]-N-[(4-guanidinomethyl-benzylcarbamoyl)-methyl]-benzamide hydrochloride], in assay [1] (setting [3]), the Ki was less than 20 nM. Moreover, the IC50 in assay [2] (setting [4]) was less than 20 nM.

`N=C(N)N1CCC(CNC(=O)CNC(=O)c2ccc(S(=O)(=O)Nc3ccccc3Oc3ccc(Cl)cc3Cl)cc2)CC1` [Example 14, N-{[(1-Carbamimidoyl-piperidin-4-ylmethyl)-carbamoyl]-methyl}-4-[2-(2,4-dichloro-phenoxy)-phenylsulfamoyl]-benzamide hydrochloride]: the Ki in assay [1] (setting [3]) is less than 20 nM. Moreover, the IC50 in assay [2] (setting [4]) is less than 20 nM.

Turning to `O=C(CNC(=O)c1ccc(S(=O)(=O)Nc2ccccc2Oc2ccc(Br)cc2Cl)cc1)NCC1CCNCC1` [Example 37, 4-[2-(4-Bromo-2-chloro-phenoxy)-phenylsulfamoyl]-N-{[(piperidin-4-ylmethyl)-carbamoyl]-methyl}-benzamide hydrochloride], in assay [1] (setting [3]), the Ki was less than 20 nM. In addition, the IC50 in assay [2] (setting [4]) is less than 20 nM.
